Measurements taken from patent US10059717B2, “Urea compounds containing 3,4-dihydropyrimido[4,5-D]pyrimidin-2(1H)-one skeleton as protein kinase inhibitors” (KOREA INSTITUTE OF SCIENCE AND TECHNOLOGY, priority 2016, dated 2018).

Assays:
[1] = biological target: T1, GCK (Homo sapiens, UniProt Q12851); assay: GCK kinase inhibitory activity; format: biochemical; conditions: read-out: Kinase inhibitory efficacy, GI50 GCK
T1 sequence (Q12851 1-820): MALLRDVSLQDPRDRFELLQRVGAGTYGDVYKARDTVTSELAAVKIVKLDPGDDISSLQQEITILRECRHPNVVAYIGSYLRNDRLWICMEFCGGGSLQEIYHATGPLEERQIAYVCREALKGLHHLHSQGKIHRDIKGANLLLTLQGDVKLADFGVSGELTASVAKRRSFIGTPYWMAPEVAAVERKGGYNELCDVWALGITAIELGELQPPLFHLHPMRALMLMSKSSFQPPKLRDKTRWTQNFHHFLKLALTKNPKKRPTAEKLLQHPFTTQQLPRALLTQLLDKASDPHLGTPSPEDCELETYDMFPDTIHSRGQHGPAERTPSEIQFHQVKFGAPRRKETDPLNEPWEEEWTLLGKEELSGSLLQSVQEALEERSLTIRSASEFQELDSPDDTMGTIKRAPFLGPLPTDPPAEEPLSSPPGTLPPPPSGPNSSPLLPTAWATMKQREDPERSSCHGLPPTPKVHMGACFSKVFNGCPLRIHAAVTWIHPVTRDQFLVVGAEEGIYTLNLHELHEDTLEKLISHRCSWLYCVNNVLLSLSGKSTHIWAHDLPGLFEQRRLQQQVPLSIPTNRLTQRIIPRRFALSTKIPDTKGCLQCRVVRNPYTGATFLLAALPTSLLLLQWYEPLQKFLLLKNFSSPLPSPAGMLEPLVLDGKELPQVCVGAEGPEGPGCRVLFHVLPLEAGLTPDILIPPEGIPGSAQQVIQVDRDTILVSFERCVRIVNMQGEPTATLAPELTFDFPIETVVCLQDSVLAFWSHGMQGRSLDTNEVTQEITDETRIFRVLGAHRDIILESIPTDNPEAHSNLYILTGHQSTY
Method: (§1) GI50 values were calculated by measuring the inhibitory efficacy of the compounds of the present invention against both GCK and ACK1 kinases.

[2] = tested on: Ba/F3 (N-Ras G12D); assay: Proliferation inhibitory activity, Ba/F3; format: cell-based; conditions: Mus musculus, BaF3; Ba/F3 (N-Ras G12D) cell line; read-out: Proliferation inhibitory efficacy (GI50, μM) Ba/F3 (N-Ras G12D)
Method: GI50 values were calculated by measuring the proliferation inhibitory efficacy of the compounds of the present invention on mt-NRAS (G12D) Ba/F3, U937 (wt-NRAS) and OCI-AML3 (mt-NRAS) cell lines.

[3] = biological target: RET (Homo sapiens, UniProt P07949); assay: Kinase panel biochemical assay; conditions: 1 μM single concentration, read-out: % residual enzyme activity
Method: (§2) In order to measure the protein kinase inhibitory activity (% inhibition) of the compounds of the present invention, biochemical assays were performed on the full kinase panel listed in the following Table 1.
(§3) As an test compound, 1-(3-(7-((6-(4-ethylpiperazine-1-carbonyl)pyridin-3-yl)amino)-1-methyl-2-oxo-1,4-dihydropyrimido[4,5-d]pyrimidin-3(2H)-yl)-4-methylphenyl)-3-(2-methoxyphenyl)urea (Compound No. 14) was used. The kinase inhibitory efficacy was measured upon treatment with a 1 μM single concentration of the test compound to calculate % residual enzyme activity value.
(§4) ABL1, FGFR2, TAOK2/TAO1, EPHA5, EPHB2, EPHB3, RET, LYN B, EPHA2, FRK/PTK5, EPHA8, LCK, EPHB4, FYN, KHS/MAP4K5, DDR1, EPHA3, P38a/MAPK14, EPHA4, FMS, EPHB1, HCK, FGFR1, ABL2/ARG, EPHA6, c-Src, ACK1, FLT4NEGFR3, ERBB4/HER4, DDR2, KDRNEGFR2, LYN, ZAK/MLTK, YES/YES1, BLK, FGR, MLCK2/MYLK2, TAOK1, BMX/ETK, BTK, EPHA1, JAK1, P38b/MAPK11, TIE2/TEK, FLT1NEGFR1, TXK, SRMS, RAF1, SIK1, MLK3/MAP3K11, PEAK1, TRKA, EPHA7, GLK/MAP4K3, MLK2/MAP3K10, TEC, CSK, TRKC, FES/FPS, SIK2, FGFR3, BRK, YSK4/MAP3K19, ARAF, PDGFRb, TNK1, GCK/MAP4K2, PDGFRa, TNIK, TAK1, ERBB2/HER2, LIMK1, HIPK4, FER, EGFR, JAK2, HPK1/MAP4K1, TRKB, RIPK3, LOK/STK10, LIMK2, MLK1/MAP3K9, BRAF, MEKK3, MEK5, STK32B/YANK2, FGFR4, MEKK2, SLK/STK2, FLT3, PKAcg, TAOK3/JIK, TYRO3/SKY, SIK3, IR, LRRK2, PYK2, NEK11, p70S6K/RPS6KB1, LATS2.

[4] = biological target: MEK5 (Homo sapiens, UniProt Q13163); assay: Kinase panel biochemical assay; conditions: 1 μM single concentration, read-out: % residual enzyme activity
Method: as §2, §3, §4

[5] = biological target: EPHA7 (Homo sapiens, UniProt Q15375); assay: Kinase panel biochemical assay; conditions: 1 μM single concentration, read-out: % residual enzyme activity
Method: as §2, §3, §4

[6] = biological target: TYRO3/SKY (Homo sapiens, UniProt Q06418); assay: Kinase panel biochemical assay; conditions: 1 μM single concentration, read-out: % residual enzyme activity
Method: as §2, §3, §4

[7] = biological target: LRRK2 (Homo sapiens, UniProt Q5S007); assay: Kinase panel biochemical assay; conditions: 1 μM single concentration, read-out: % residual enzyme activity
Method: as §2, §3, §4

[8] = biological target: EGFR (Homo sapiens, UniProt P00533); assay: Kinase panel biochemical assay; conditions: 1 μM single concentration, read-out: % residual enzyme activity
Method: as §2, §3, §4

[9] = biological target: SRMS (Homo sapiens, UniProt Q9H3Y6); assay: Kinase panel biochemical assay; conditions: 1 μM single concentration, read-out: % residual enzyme activity
Method: as §2, §3, §4

[10] = biological target: PDGFRb (Homo sapiens, UniProt P09619); assay: Kinase panel biochemical assay; conditions: 1 μM single concentration, read-out: % residual enzyme activity
Method: as §2, §3, §4

[11] = biological target: YES/YES1 (Homo sapiens, UniProt P07947); assay: Kinase panel biochemical assay; conditions: 1 μM single concentration, read-out: % residual enzyme activity
Method: as §2, §3, §4

[12] = biological target: MLK1/MAP3K9 (Homo sapiens, UniProt P80192); assay: Kinase panel biochemical assay; conditions: 1 μM single concentration, read-out: % residual enzyme activity
Method: as §2, §3, §4

[13] = biological target: TNIK (Homo sapiens, UniProt Q9UKE5); assay: Kinase panel biochemical assay; conditions: 1 μM single concentration, read-out: % residual enzyme activity
Method: as §2, §3, §4

[14] = biological target: KHS/MAP4K5 (Homo sapiens, UniProt Q9Y4K4); assay: Kinase panel biochemical assay; conditions: 1 μM single concentration, read-out: % residual enzyme activity
Method: as §2, §3, §4

[15] = biological target: MLK3/MAP3K11 (Homo sapiens, UniProt Q16584); assay: Kinase panel biochemical assay; conditions: 1 μM single concentration, read-out: % residual enzyme activity
Method: as §2, §3, §4

[16] = biological target: ACK1 (Homo sapiens, UniProt Q07912); assay: ACK1 kinase inhibitory activity; format: biochemical; conditions: read-out: Kinase inhibitory efficacy, GI50 ACK1
Method: as §1

Chain of EPHA7 (Q15375 28-998): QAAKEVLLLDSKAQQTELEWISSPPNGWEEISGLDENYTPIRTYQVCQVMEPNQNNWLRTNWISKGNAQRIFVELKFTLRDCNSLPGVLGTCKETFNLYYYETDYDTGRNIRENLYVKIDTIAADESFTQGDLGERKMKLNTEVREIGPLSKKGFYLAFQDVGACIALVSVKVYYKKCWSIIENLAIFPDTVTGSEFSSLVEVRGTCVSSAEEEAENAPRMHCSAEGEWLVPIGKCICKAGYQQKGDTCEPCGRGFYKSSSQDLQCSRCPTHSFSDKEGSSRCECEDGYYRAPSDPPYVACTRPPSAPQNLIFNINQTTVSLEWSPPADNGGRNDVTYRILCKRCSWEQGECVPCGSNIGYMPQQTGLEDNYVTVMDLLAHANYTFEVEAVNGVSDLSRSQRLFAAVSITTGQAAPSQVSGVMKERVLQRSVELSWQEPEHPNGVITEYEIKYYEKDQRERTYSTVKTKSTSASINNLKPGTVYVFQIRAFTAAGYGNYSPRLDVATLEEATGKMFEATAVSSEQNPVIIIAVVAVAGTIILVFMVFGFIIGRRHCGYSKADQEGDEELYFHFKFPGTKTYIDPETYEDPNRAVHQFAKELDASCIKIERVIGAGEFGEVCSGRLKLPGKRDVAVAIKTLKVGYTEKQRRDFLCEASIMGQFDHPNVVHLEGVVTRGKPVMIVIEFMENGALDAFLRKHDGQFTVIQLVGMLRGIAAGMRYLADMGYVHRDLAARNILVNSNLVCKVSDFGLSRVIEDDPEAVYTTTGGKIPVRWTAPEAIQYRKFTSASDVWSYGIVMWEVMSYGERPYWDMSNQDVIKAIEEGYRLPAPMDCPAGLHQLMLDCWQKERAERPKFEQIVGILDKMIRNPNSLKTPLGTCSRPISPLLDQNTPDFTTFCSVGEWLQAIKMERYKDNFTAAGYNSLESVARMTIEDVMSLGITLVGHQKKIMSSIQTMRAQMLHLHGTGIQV
Chain of MLK1/MAP3K9 (P80192 whole entry): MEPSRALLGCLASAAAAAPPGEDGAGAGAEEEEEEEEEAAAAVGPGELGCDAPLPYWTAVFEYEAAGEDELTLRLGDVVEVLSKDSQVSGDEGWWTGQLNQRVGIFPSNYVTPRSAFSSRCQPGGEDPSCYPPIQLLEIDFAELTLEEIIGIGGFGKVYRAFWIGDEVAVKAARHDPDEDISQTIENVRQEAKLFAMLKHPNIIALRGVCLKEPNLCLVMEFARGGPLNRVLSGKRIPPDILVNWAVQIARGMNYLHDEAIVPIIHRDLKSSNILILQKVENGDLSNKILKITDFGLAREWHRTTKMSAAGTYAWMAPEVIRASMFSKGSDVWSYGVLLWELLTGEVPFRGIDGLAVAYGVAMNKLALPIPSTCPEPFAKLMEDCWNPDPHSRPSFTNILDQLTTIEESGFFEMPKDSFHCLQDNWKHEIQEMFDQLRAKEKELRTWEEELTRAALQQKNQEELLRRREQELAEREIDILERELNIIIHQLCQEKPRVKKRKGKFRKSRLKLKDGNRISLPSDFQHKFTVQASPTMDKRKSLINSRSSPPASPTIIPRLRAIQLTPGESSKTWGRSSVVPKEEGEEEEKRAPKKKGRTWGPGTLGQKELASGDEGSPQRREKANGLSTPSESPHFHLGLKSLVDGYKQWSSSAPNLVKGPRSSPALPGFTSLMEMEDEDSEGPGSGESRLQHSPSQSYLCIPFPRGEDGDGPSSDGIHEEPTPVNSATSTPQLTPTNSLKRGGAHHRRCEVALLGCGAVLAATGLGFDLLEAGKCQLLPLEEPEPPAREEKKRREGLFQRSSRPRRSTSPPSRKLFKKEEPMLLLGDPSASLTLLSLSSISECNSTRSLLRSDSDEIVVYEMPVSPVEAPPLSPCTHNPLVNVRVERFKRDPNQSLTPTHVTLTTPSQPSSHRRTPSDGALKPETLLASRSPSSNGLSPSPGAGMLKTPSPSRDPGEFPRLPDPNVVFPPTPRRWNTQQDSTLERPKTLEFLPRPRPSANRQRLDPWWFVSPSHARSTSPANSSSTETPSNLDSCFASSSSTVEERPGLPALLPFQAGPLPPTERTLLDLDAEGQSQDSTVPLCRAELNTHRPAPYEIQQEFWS
Chain of RET (P07949 29-1114): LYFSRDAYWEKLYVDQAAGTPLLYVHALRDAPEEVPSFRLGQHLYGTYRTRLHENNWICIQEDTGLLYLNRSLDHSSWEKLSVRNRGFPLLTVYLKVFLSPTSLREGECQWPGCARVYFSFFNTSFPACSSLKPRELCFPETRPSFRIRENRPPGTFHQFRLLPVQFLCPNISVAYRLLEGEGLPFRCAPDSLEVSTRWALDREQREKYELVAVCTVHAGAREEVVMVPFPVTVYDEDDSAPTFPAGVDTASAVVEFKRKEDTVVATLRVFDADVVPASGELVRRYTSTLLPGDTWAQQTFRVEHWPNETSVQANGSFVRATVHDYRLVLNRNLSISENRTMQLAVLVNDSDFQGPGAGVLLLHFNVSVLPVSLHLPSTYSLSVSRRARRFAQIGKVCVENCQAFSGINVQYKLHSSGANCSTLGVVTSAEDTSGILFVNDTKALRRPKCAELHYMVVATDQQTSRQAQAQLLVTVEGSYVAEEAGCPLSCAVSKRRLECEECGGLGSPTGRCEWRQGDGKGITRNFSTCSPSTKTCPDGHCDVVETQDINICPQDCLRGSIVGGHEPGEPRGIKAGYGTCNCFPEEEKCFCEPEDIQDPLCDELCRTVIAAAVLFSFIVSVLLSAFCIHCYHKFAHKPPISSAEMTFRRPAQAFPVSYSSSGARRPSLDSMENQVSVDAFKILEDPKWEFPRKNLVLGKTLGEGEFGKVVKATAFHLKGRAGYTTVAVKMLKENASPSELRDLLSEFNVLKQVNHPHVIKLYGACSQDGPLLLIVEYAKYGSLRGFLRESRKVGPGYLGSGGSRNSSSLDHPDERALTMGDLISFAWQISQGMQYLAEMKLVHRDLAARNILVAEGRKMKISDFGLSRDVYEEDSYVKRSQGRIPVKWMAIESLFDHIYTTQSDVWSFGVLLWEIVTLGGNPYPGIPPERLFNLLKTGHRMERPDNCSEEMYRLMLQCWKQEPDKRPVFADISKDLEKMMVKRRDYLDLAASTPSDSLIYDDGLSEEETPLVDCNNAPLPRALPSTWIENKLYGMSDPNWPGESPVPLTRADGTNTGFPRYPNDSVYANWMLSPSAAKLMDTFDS
Chain of MEK5 (Q13163 whole entry): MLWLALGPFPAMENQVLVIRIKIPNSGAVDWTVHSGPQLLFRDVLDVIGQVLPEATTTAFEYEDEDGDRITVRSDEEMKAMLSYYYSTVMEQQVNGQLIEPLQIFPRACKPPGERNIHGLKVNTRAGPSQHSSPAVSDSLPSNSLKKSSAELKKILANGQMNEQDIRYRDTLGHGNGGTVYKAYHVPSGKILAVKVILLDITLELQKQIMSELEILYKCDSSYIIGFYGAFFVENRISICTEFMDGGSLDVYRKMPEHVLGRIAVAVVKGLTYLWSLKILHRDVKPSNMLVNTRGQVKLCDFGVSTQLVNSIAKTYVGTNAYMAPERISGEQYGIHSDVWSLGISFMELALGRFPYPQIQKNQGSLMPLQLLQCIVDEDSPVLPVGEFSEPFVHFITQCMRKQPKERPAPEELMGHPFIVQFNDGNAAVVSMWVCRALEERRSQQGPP
Chain of SRMS (Q9H3Y6 whole entry): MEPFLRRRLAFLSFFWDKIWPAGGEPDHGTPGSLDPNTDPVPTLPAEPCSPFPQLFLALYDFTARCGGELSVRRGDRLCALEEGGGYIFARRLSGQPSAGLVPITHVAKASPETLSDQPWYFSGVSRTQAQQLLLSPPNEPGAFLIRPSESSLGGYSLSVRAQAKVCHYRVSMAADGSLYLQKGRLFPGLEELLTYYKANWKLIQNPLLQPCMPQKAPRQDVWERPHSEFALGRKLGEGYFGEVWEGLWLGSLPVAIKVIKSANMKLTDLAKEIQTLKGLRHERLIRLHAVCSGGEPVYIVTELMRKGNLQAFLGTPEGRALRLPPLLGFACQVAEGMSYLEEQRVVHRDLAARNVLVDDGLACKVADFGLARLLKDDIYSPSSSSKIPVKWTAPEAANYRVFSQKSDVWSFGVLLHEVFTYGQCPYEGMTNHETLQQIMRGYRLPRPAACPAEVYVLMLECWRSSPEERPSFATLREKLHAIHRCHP
Chain of KHS/MAP4K5 (Q9Y4K4 whole entry): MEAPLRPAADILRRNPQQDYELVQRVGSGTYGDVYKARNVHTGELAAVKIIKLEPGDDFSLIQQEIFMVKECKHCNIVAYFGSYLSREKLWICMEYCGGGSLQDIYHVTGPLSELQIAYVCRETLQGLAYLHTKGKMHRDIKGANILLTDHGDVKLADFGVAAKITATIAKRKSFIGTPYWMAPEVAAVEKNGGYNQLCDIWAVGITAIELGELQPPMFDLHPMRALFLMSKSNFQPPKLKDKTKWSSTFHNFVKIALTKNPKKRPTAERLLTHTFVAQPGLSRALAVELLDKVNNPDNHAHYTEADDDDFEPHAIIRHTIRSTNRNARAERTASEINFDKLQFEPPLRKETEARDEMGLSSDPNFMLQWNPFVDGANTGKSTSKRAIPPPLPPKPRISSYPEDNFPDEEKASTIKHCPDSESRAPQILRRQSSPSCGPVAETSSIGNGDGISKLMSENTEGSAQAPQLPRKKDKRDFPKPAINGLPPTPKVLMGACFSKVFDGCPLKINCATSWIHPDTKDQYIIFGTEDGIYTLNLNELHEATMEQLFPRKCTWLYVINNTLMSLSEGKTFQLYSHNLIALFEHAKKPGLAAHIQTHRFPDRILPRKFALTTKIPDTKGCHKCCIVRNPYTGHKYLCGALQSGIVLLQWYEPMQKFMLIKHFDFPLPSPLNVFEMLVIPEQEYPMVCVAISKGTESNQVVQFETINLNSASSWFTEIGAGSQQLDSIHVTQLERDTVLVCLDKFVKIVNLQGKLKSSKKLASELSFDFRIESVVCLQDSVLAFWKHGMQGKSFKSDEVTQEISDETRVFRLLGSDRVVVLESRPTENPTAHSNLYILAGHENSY

Question: Which results are given for `CCN1CCN(C(=O)c2ccc(Nc3ncc4c(n3)N(C)C(=O)N(c3cc(NC(=O)Nc5ccccc5OC)ccc3C)C4)cn2)CC1` [Compound No. 14, 1-(3-(7-((6-(4-ethylpiperazin-1-carbonyl)pyridin-3-yl)amino)-1-methyl-2-oxo-1,4-dihydropyrimido[4,5-d]pyrimidin-3(2H)-yl)-4-methylphenyl)-3-(2-methoxyphenyl)urea]?
Answer: GI50 [1]: < 30 nM; GI50 [2]: 0.5 to 3 µM; remaining activity at 1 µM [3]: ≤ 30%; remaining activity at 1 µM [4]: ≤ 30%; remaining activity at 1 µM [5]: ≤ 30%; remaining activity at 1 µM [6]: ≤ 30%; remaining activity at 1 µM [7]: ≤ 30%; remaining activity at 1 µM [8]: ≤ 30%; remaining activity at 1 µM [9]: ≤ 30%; remaining activity at 1 µM [10]: ≤ 30%; remaining activity at 1 µM [11]: ≤ 30%; remaining activity at 1 µM [12]: ≤ 30%; remaining activity at 1 µM [13]: ≤ 30%; remaining activity at 1 µM [14]: ≤ 30%; remaining activity at 1 µM [15]: ≤ 30%; GI50 [16]: < 30 nM
